Experimental data taken from patent US20260083865A1, “PROSTATE SPECIFIC MEMBRANE ANTIGEN (PSMA) LIGANDS AND USE THEREOF” (priority 2022, published 2026).
Where two headings read alike, the source gives them in different places. Numbered stars: 1 amine (or outer) side, 2 acyl side, 3 side chain; on linkers, the order of the positions; unused ones are H or OH. Bridge positions count the residues as written; N and C are the ends. Square brackets hold non-standard residues; d marks the D form. Peptide text beside a SMILES is read from it. * marks the point of attachment. ξ: configuration not given here. X17 = N=c1ccc2c(-c3ccc(C(=O)NCCC(=O)N4Cc5ccccc5-c5c(nnn5CCCCCC(=O)NCCCOCCOCCOCCCNC(=O)CCC(=O)NCCCOCCOCCOCCCN*)-c5ccccc54)cc3C(=O)O)c3ccc(N)c(S(=O)(=O)O)c3oc-2c1S(=O)(=O)O; X19 = NC(=O)[C@H](CCCCNC(=O)CCCC[C@@H]1SC[C@@H]2NC(=O)N[C@@H]21)NC(=O)CCC(=O)NCCCOCCOCCOCCCNC(=O)CCC(=O)NCCCOCCOCCOCCCNC(=O)CCC(=O)NCCCOCCOCCOCCCN*; X3 = O=C(O)CN1CCN(CC(=O)O)CCN(CC(=O)NCCCOCCOCCOCCCN*)CCN(CC(=O)O)CC1; X18 = O=C(O)c1cccc(CN2CCOCCOCCN(Cc3cc(N*)cc(C(=O)O)n3)CCOCCOCC2)n1; DOTA = O=C(O)CN1CCN(CC(=O)O)CCN(CC(=O)*)CCN(CC(=O)O)CC1; X20 = CN(CCC[C@H](N[*:1])C(=O)[*:2])C(=N)N; Phe(3-Cl) = N[C@@H](Cc1cccc(Cl)c1)C(=O)O; Phe(4-Cl) = N[C@@H](Cc1ccc(Cl)cc1)C(=O)O; Arg(Me) = CNC(=N)NCCC[C@H](N)C(=O)O; Glutaryl = O=C(CCCC(=O)[*:2])[*:1]; Hyp = O=C(O)[C@@H]1C[C@@H](O)CN1; X1 = O=C(CC1CCN([*:1])CC1)[*:2]; Cit = NC(=O)NCCC[C@H](N)C(=O)O; Lys(Me) = CNCCCC[C@H](N)C(=O)O; Suc = O=C(CCC(=O)[*:2])[*:1]; Tle = CC(C)(C)[C@H](N)C(=O)O; Aib = CC(C)(N)C(=O)O; ξM = CSCCC(N)C(=O)O

Assays:
[1] = biological target: T1, PSMA-expressing C4-2 cells (Homo sapiens, UniProt Q04609); assay: FACS binding assay (competition with 50 nM PSM-0183); details: read-out: pIC50 [C4-2] CAT (converted)
T1 construct: PSMA-expressing C4-2 cells (ATCC, Cat. No. CRL-3314) were cultured in RPMI-1640; host or cells: C4-2 cells
T1 sequence (Q04609 whole entry): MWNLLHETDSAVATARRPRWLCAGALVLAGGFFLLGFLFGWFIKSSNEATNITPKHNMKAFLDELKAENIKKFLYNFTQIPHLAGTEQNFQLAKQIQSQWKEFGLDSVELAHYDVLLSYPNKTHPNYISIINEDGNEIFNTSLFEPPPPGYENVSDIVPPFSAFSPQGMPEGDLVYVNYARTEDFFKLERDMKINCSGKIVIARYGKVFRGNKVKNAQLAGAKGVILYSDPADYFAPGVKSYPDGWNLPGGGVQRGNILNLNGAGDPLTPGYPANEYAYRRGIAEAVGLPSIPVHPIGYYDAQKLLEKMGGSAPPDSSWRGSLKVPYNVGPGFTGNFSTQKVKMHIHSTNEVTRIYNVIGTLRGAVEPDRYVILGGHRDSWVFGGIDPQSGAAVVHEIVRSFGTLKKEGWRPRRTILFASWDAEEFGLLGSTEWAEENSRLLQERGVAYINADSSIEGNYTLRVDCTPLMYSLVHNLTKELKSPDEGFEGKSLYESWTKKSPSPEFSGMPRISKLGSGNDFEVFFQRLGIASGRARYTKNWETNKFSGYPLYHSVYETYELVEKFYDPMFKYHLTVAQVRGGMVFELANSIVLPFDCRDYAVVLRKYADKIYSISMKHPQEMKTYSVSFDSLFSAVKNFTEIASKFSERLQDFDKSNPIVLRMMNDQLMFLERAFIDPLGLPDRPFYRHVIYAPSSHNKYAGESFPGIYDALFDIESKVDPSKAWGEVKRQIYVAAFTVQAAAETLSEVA
Method: In order to determine binding of compounds according to the present invention to PSMA-expressing cells, a FACS binding assay was established.
PSMA-expressing C4-2 cells (ATCC, Cat. No. CRL-3314) were cultured in RPMI-1640 (Pan Biotech, Cat. No. P04-18050) including 10% fetal calf serum (Biochrom) and 100 U/ml penicillin and 100 μg/mL streptomycin (Sigma, Cat. No. P0781). Cells were detached with Accutase (Biolegend, Cat. No. BLD-423201) and washed in FACS buffer (PBS (Sigma, Cat. No. D8537) including 1% fetal calf serum). Cells were diluted in FACS buffer to a final concentration of 500,000 cells per mL. 200 μL of the cell suspension were transferred to a u-shaped non-binding 96-well plate (Greiner Bio-One, Cat. No. 650901) and cells were washed in ice-cold FACS buffer.
For IC50 determination, C4-2 cells were incubated with 50 nM PSM-0183 (Ac-Thr-Aib-Phe[Cys-Lys-Arg-Aib-Asn-Cys]-Tle-Thr-Asp-Ttds-Ttds-AF488N3K-NH2) in the presence of increasing concentrations of test compounds at 4° C. for 1 hour. After two wash steps with ice-cold FACS buffer, cells were analyzed in an Attune NxT flow cytometer. Median fluorescence intensities (MFI) of the FITC/AF488-channel were calculated by Attune NxT software. MFI values were plotted against peptide concentration and four parameter logistic (4PL) curve fitting and IC50/pIC50 calculations were performed using ActivityBase software (IDBS).

[2] = biological target: T2, Fc-fusion protein of human PSMA (hPSMA-Fc) (Homo sapiens, UniProt Q04609); assay: Surface plasmon resonance assay (Biacore T200, single cycle kinetic); type: binding; details: hPSMA-Fc, 25° C., read-out: pKD CAT (converted)
T2 construct: purchased Acro Biosystems PSA-H5264
T2 sequence (Q04609 44-750 limits assumed): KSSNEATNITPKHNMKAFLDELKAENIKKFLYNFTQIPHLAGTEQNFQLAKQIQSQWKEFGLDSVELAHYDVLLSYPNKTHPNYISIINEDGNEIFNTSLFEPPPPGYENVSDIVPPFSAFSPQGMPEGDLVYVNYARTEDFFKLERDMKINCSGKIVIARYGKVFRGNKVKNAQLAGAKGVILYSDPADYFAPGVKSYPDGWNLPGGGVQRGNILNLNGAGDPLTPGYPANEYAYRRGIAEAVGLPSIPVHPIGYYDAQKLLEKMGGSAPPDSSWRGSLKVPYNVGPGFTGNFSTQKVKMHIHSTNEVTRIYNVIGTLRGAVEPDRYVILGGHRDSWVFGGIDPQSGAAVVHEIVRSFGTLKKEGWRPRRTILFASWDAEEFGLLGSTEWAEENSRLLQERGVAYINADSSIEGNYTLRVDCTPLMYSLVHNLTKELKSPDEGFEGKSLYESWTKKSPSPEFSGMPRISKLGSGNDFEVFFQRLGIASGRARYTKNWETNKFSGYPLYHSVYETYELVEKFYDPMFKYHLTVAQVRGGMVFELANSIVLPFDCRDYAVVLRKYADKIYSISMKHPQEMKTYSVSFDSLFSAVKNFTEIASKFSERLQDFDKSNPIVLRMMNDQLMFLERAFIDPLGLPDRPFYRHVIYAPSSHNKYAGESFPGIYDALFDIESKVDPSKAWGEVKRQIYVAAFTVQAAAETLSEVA
Method: Surface plasmon resonance (SPR) studies were performed using a Biacore™ T200 SPR system. Briefly, polarized light is directed towards a gold-labeled sensor surface, and minimum intensity reflected light is detected. The angle of reflected light changes as molecules bind and dissociate.
Fc-fusion protein of human PSMA (hPSMA-Fc, Acro Biosystems, Cat #PSA-H5264) was captured on a Fc-capture chip (Biacore™ CM5 sensor chip coated with ˜300 RU of an Fc-binding peptide). hPSMA-Fc was diluted in Running Buffer (HBST, 0.1% DMSO) to a final concentration of 100 nM and then flushed over the Fc-capture chip to immobilized ˜1000 RUs.
Stock solutions of test compounds were prepared by dissolving each compound in DMSO. DMSO stock solution were diluted 1:1000 in Running Buffer without DMSO. Further sequential dilutions were made with Running Buffer containing 0.1% DMSO. SPR binding analyses were performed in Single Cycle Kinetic (SCK) mode at 25° C. Flow cell coated with the Fc-binding peptide only served as reference flowcell. After each SCK run, hPSMA-Fc was removed with 10 mM glycine buffer, pH 1.5.
In between every three SCK measurements, a blank run with Running Buffer instead of test compound was included to correct for baseline drifts (double blanking method).
Table 5 describes the protocol steps for Fc-fusion target capturing and assessment of the binding kinetics.
For each test compound, SPR raw data in the form of resonance units (RU) were plotted as sensorgrams using the Biacore™ T200 control software. The signal from the blank sensorgram was subtracted from that of the test compound sensorgram (blank corrected). The blank corrected sensorgram was corrected for baseline drift by subtracting the sensorgram of a SCK run without the test compound (running buffer only). The dissociation constant (KD) was calculated from Blank-normalized SPR data using the 1:1 Langmuir binding model from the Biacore™ Insight Evaluation software. The pKD value (negative decadic logarithm of dissociation constant) was calculated using Microsoft Excel.

[3] = FACS binding, C4-2 cells, competition with 50 nM PSM-0183, category
[4] = SPR, single cycle kinetic, category

Compound	IC50 [1, 3] [nM]	Kd [2, 4] [nM]	other results
CC(=O)N[C@H](C(=O)NC(C)(C)C(=O)N[C@@H](Cc1ccccc1)C(=O)N[C@H]1CSSC[C@@H](C(=O)N[C@H](C(=O)N[C@H](C(=O)N[C@@H](CC(=O)O)C(N)=O)[C@@H](C)O)C(C)(C)C)NC(=O)[C@H](CC(N)=O)NC(=O)[C@@H]2C[C@@H](O)CN2C(=O)[C@H](CCCNC(=N)N)NC(=O)[C@H](CCCCN)NC1=O)[C@@H](C)O [PSM-0181, Ac-Thr-Aib-Phe-[Cys-Lys-Arg-Hyp-Asn-Cys]-Tle-Thr-Asp-NH2] (Ac-T[Aib]FCKR[Hyp]NC[Tle]TD-NH2; disulfide 4-9)	< 200	< 12.6	–
CC(=O)N[C@H](C(=O)NC(C)(C)C(=O)N[C@@H](Cc1cccc(Cl)c1)C(=O)N[C@H]1CSSC[C@@H](C(=O)N[C@H](C(=O)N[C@H](C(=O)N2CCC(CC(=O)N[C@H](CCCCNC(=O)CN3CCN(CC(=O)O)CCN(CC(=O)O)CCN(CC(=O)O)CC3)C(N)=O)CC2)[C@@H](C)O)C(C)(C)C)NC(=O)[C@H](CC(N)=O)NC(=O)C(C)(C)NC(=O)[C@H](CCCNC(N)=O)NC(=O)[C@H](CCCCN)NC1=O)[C@@H](C)O [PSM-0275, Ac-Thr-Aib-Mcf-[Cys-Lys-Cit-Aib-Asn-Cys]-Tle-Thr-Cmp-lys(DOTA)-NH2] (Ac-T[Aib][Phe(3-Cl)]CK[Cit][Aib]NC[Tle]T[X1][dK](DOTA)-NH2; disulfide 4-9)	–	–	IC50 ([1]; FACS binding, PSMA-expressing C4-2 cells, pIC50 category): 200 to 1260 nM; Kd ([2]; PSMA SPR assay, pKD category): 12.6 to 126 nM
CSCC[C@@H]1NC(=O)C(C)(C)NC(=O)[C@H](CCCNC(N)=O)NC(=O)[C@H](CCCCN)NC(=O)[C@@H](NC(=O)[C@H](Cc2ccc(Cl)cc2)NC(=O)C(C)(C)NC(=O)[C@@H](NC(C)=O)[C@@H](C)O)CSSC[C@@H](C(=O)N[C@H](C(=O)N[C@H](C(N)=O)[C@@H](C)O)C(C)(C)C)NC1=O [PSM-0229, Ac-Thr-Aib-Pcf-[Cys-Lys-Arg-Aib-Met-Cys]-Tle-Thr-NH2] (Ac-T[Aib][Phe(4-Cl)]CK[Cit][Aib]MC[Tle]T-NH2; disulfide 4-9)	–	< 12.6	–
CC(C)C[C@H](NC(=O)[C@@H]1CSSC[C@H](NC(=O)[C@H](Cc2ccccc2)NC(=O)[C@H](C)NC(=O)[C@@H](NC(=O)CCC(=O)NCCCOCCOCCOCCCNC(=O)CN2CCN(CC(=O)O)CCN(CC(=O)O)CCN(CC(=O)O)CC2)[C@@H](C)O)C(=O)N[C@@H](CCCCN)C(=O)N[C@@H](CCCNC(=N)N)C(=O)N[C@@H](C)C(=O)N[C@@H](CC(N)=O)C(=O)N1)C(=O)N[C@H](C(=O)N[C@@H](CC(=O)O)C(N)=O)[C@@H](C)O [PSM-0251, DOTA-Ttds-Thr-Ala-Phe-[Cys-Lys-Arg-Ala-Asn-Cys]-Leu-Thr-Asp-NH2] ({X3-Suc}-TAFCKRANCLTD-NH2; disulfide 4-9)	200 to 1260	–	–
CNCCCC[C@@H]1NC(=O)[C@@H](NC(=O)[C@H](Cc2ccc(Cl)cc2)NC(=O)C(C)(C)NC(=O)[C@@H](NC(=O)CC2CCN(C(=O)CCCC(=O)Nc3cc(CN4CCOCCOCCN(Cc5cccc(C(=O)O)n5)CCOCCOCC4)nc(C(=O)O)c3)CC2)[C@@H](C)O)CSSC[C@@H](C(=O)N[C@H](C(=O)N[C@H](C(N)=O)[C@@H](C)O)C(C)(C)C)NC(=O)[C@H](CC(N)=O)NC(=O)C(C)(C)NC(=O)[C@H](CCCNC(=N)NC)NC1=O [PSM-0515, Macropa-Cmp-Thr-Aib-Pcf-[Cys-Lys(Me)-Arg(Me)-Aib-Asn-Cys]-Tle-Thr-NH2] ({X18-Glutaryl}-[X1]T[Aib][Phe(4-Cl)]C[Lys(Me)][Arg(Me)][Aib]NC[Tle]T-NH2; disulfide 5-10)	–	–	IC50 ([1]; pIC50 category of FACS binding, C4-2 cells): < 200 nM
CSCCC(N)C(=O)N[C@H](C(=O)N[C@@H](C)C(=O)N[C@@H](Cc1ccccc1)C(=O)N[C@H]1CSSC[C@@H](C(=O)N[C@@H](CC(C)C)C(=O)N[C@H](C(=O)N[C@@H](CC(=O)O)C(=O)NCC(=O)N[C@@H](CO)C(=O)NCCCOCCOCCOCCCNC(=O)CCC(=O)NCCCOCCOCCOCCCNC(=O)CCC(=O)NCCCOCCOCCOCCCNC(=O)CCC(=O)N[C@@H](CCCCNC(=O)CCCC[C@@H]2SC[C@@H]3NC(=O)N[C@@H]32)C(N)=O)[C@@H](C)O)NC(=O)[C@H](CC(N)=O)NC(=O)[C@H](C)NC(=O)[C@H](CCCNC(=N)N)NC(=O)[C@H](CCCCN)NC1=O)[C@@H](C)O (stereo partly drawn) [PSM-0226, H-Met-Thr-Ala-Phe-[Cys-Lys-Arg-Ala-Asn-Cys]-Leu-Thr-Asp-Gly-Ser-Ttds-Ttds-Ttds-Lys(Bio)-NH2] (H-[ξM]TAFCKRANCLTDGS-X19; disulfide 5-10)	200 to 1260	–	–
CC(=O)N[C@H](C(=O)NC(C)(C)C(=O)N[C@@H](Cc1ccccc1)C(=O)N[C@H]1CSSC[C@@H](C(=O)N[C@H](C(=O)N[C@H](C(=O)N[C@@H](CC(=O)O)C(=O)NCCCOCCOCCOCCCNC(=O)CCC(=O)NCCCOCCOCCOCCCNC(=O)CCC(=O)N[C@H](CCCCn2nnc3c2-c2ccccc2CN(C(=O)CCNC(=O)c2ccc(-c4c5ccc(=N)c(S(=O)(=O)O)c-5oc5c(S(=O)(=O)O)c(N)ccc45)c(C(=O)O)c2)c2ccccc2-3)C(N)=O)[C@@H](C)O)C(C)(C)C)NC(=O)[C@H](CC(N)=O)NC(=O)C(C)(C)NC(=O)[C@H](CCCNC(=N)N)NC(=O)[C@H](CCCCN)NC1=O)[C@@H](C)O [PSM-0183, Ac-Thr-Aib-Phe-[Cys-Lys-Arg-Aib-Asn-Cys]-Tle-Thr-Asp-Ttds-Ttds-AF488N3K-NH2]	–	< 12.6	–
CNCCCC[C@@H]1NC(=O)[C@@H](NC(=O)[C@H](Cc2ccc(Cl)cc2)NC(=O)C(C)(C)NC(=O)[C@@H](NC(=O)CC2CCN(C(=O)CN3CCN(CC(=O)O)CCN(CC(=O)O)CCN(CC(=O)O)CC3)CC2)[C@@H](C)O)CSSC[C@@H](C(=O)N[C@H](C(=O)N[C@H](C(N)=O)[C@@H](C)O)C(C)(C)C)NC(=O)[C@H](CC(N)=O)NC(=O)C(C)(C)NC(=O)[C@H](CCCN(C)C(=N)N)NC1=O [PSM-0592, DOTA-Cmp-Thr-Aib-Pcf-[Cys-Lys(Me)-RMe1-Aib-Asn-Cys]-Tle-Thr-NH2] ({DOTA}-[X1]T[Aib][Phe(4-Cl)]C[Lys(Me)][X20][Aib]NC[Tle]T-NH2; disulfide 5-10)	–	–	IC50 ([1]; FACS binding, C4-2 cells, category): < 200 nM
C[C@@H](O)[C@H](NC(=O)CCC(=O)NCCCOCCOCCOCCCNC(=O)CCC(=O)NCCCOCCOCCOCCCNC(=O)CCCCCn1nnc2c1-c1ccccc1CN(C(=O)CCNC(=O)c1ccc(-c3c4ccc(=N)c(S(=O)(=O)O)c-4oc4c(S(=O)(=O)O)c(N)ccc34)c(C(=O)O)c1)c1ccccc1-2)C(=O)NC(C)(C)C(=O)N[C@@H](Cc1ccccc1)C(=O)N[C@H]1CSSC[C@@H](C(=O)N[C@H](C(=O)N[C@H](C(=O)N[C@@H](CC(=O)O)C(N)=O)[C@@H](C)O)C(C)(C)C)NC(=O)[C@H](CC(N)=O)NC(=O)C(C)(C)NC(=O)[C@H](CCCNC(=N)N)NC(=O)[C@H](CCCCN)NC1=O [PSM-0272, AF488Ahx-Ttds-Ttds-Thr-Aib-Phe-[Cys-Lys-Arg-Aib-Asn-Cys]-Tle-Thr-Asp-NH2] ({X17-Suc}-T[Aib]FCKR[Aib]NC[Tle]TD-NH2; disulfide 4-9)	–	–	Kd ([2]; PSMA SPR assay, pKD category): < 12.6 nM
